No end group written: not given here.
Assays:
[1] = Computationally predicted from Kunitz inhibitor protein; ref [21]; cited from earlier work
Source text: Table 4 Reported AMPs from Schistosoma mansoni. | column: Activity reported

E. faecalis JH2-2 = experiment: microbe, parasite or virus in culture; type: cell-based, Enterococcus faecalis
Description: (§1) Prioritised helminth AMP-LPs were synthesised at >70% purity (Genosphere Biotechnologies). […] Peptides and control antibiotics [Ciprofloxacin (for gram-negative species; Sigma-Aldrich) and Vancomycin hydrochloride (for gram-positive species; Sigma-Aldrich)] were dissolved in sterile ultrapure water at a concentration of 5.12mg/ml. Minimum inhibitory concentrations (MICs) were determined for gram-positive and gram-negative bacterial isolates (see Table 3 for species) using microbroth dilution assays as described previously. Briefly, a single colony from each bacterial species was inoculated in cation-adjusted Mueller Hinton Broth (MHB) and grown for 18–24 hours at 37°C with shaking (225rpm) before being adjusted to a final bacterial density of 5x10^5 colony forming units (CFU) per ml. Peptides and Vancomycin hydrochloride were diluted using sterile MHB in sterile U-bottom 96 well polypropylene microplates (Greiner Bio One, UK) to give a concentration gradient ranging from 512–0.25μg/ml. Ciprofloxacin was further diluted in sterile MHB to give a concentration gradient ranging from 32–0.02μg/ml. Microplates were incubated at 37°C for 18–24 hours. Plates were assessed for visible growth and the MIC was defined as the lowest concentration of peptide or antibiotic that inhibited visible growth of a bacterial culture after an 18–24-hour incubation. MIC data were validated by positive and negative control antibiotic MIC data for each bacterial isolate.

[2] = test system: gram-positive and gram-negative bacterial isolates; type: cell-based
Description: as §1, with “MIC data were validated by positive and negative control antibiotic MIC data for each bacterial isolate.” left out

A. baumannii DSM 30007 = experiment: Minimum inhibitory concentration, microbroth dilution; type: cell-based, Acinetobacter baumannii; settings: cation-adjusted MHB, 5x10^5 CFU/ml, 37°C, 18–24 h, visible growth; for MIC A. baumannii DSM 30007 (-): peptides 512–0.25μg/ml, >70% purity (Cecropin P1 >95%), Ciprofloxacin 32–0.02μg/ml
Description: as §1

E. coli K12 = experiment: as above; type: cell-based, Escherichia coli; settings: cation-adjusted MHB, 5x10^5 CFU/ml, 37°C, 18–24 h, visible growth; for MIC E. coli K12 (-): peptides 512–0.25μg/ml, >70% purity (Cecropin P1 >95%), Ciprofloxacin 32–0.02μg/ml
Description: as §1

P. aeruginosa PA01 = experiment: as above; type: cell-based, Pseudomonas aeruginosa; settings: cation-adjusted MHB, 5x10^5 CFU/ml, 37°C, 18–24 h, visible growth; for MIC P. aeruginosa PA01 (-): peptides 512–0.25μg/ml, >70% purity (Cecropin P1 >95%), Ciprofloxacin 32–0.02μg/ml
Description: as §1

S. aureus EMRSA-15 = experiment: microbe, parasite or virus in culture; type: cell-based, Staphylococcus aureus; settings: Methicillin-resistant; microbroth dilution, cation-adjusted MHB, 5x10^5 CFU/ml, 37°C, 18–24 h, visible growth; peptides and Vancomycin hydrochloride 512–0.25μg/ml; peptides >70% purity (Cecropin P1 >95%)
Description: as §1

S. aureus RN4220 = experiment: microbe, parasite or virus in culture; type: cell-based, Staphylococcus aureus; settings: Methicillin-Sensitive; microbroth dilution, cation-adjusted MHB, 5x10^5 CFU/ml, 37°C, 18–24 h, visible growth; peptides and Vancomycin hydrochloride 512–0.25μg/ml; peptides >70% purity (Cecropin P1 >95%)
Description: as §1

[3] = microbroth dilution, cation-adjusted MHB, 5x10^5 CFU/ml, 37°C, 18–24 h, visible growth, peptides and Vancomycin hydrochloride 512–0.25μg/ml, peptides >70% purity (Cecropin P1 >95%)

Substance | MIC A. baumannii DSM 30007 (-) (A. baumannii DSM 30007) | MIC E. coli K12 (-) (E. coli K12) | MIC P. aeruginosa PA01 (-) (P. aeruginosa PA01) | MIC E. faecalis JH2-2 (+) (E. faecalis JH2-2; [3]) | MIC S. aureus EMRSA-15 (+) (S. aureus EMRSA-15) | MIC S. aureus RN4220 (+) (S. aureus RN4220) | further results
GILDIKNKVSNLFKKIKGEK [Schistocin-1] | – | – | – | – | – | – | Activity reported (all activity) [1]: All activity >100μM
GFGKWVKKKWGSVRKGASKLVKGVKKVFPKKGIPIIRYERRF [nAMP-LP-249] | – | – | – | – | – | – | MIC E. faecalis JH2-2 (+) (E. faecalis JH2-2; JH2-2): 16 µg/mL; MIC against gram-negative species screened [2]: 8 µg/mL
GLGKSLKKIGRKIDKGFRKIRDRAGASVSFGSGQKPQGSIQISPV-NH2 [nAMP-LP-617] | 8 µg/mL | 4 µg/mL | 32 µg/mL | / (/ indicates that there was no activity at the highest concentration of peptide used (512μg/ml)) | / (/ indicates that there was no activity at the highest concentration of peptide used (512μg/ml)) | / (/ indicates that there was no activity at the highest concentration of peptide used (512μg/ml)) | MIC (A. baumannii DSM 30007; read-out: MIC A. baumannii DSM 30007 (-), μM in brackets): 2 µM; MIC (E. coli K12; read-out: MIC E. coli K12 (-), μM in brackets): 1 µM; MIC (P. aeruginosa PA01; read-out: MIC P. aeruginosa PA01 (-), μM in brackets): 7 µM; MIC against gram-negative species screened [2]: 4 to 32 µg/mL
GILDIKNKVSNLFKKIK [Schistocin-2] | – | – | – | – | – | – | Activity reported [1]: Antifungal
GILDIKNKVSNLF [Schistocin-3] | – | – | – | – | – | – | Activity reported [1]: Antibacterial Antifungal
FGYWSGGGHGGGHGIHGGGGGHHGWH [nAMP-LP-235, nematode AMP-like peptide selected for synthesis and MIC screening] | / (/ indicates that there was no activity at the highest concentration of peptide used (512μg/ml)) | / (/ indicates that there was no activity at the highest concentration of peptide used (512μg/ml)) | / (/ indicates that there was no activity at the highest concentration of peptide used (512μg/ml)) | / (/ indicates that there was no activity at the highest concentration of peptide used (512μg/ml)) | / (/ indicates that there was no activity at the highest concentration of peptide used (512μg/ml)) | / (/ indicates that there was no activity at the highest concentration of peptide used (512μg/ml)) | –
ISKFLKGAAIAGGLAVAGAVAYKAYKNYKKNQEQQAAATGRK [nAMP-LP-11, nematode AMP-like peptide selected for synthesis and MIC screening] | / (/ indicates that there was no activity at the highest concentration of peptide used (512μg/ml)) | / (/ indicates that there was no activity at the highest concentration of peptide used (512μg/ml)) | / (/ indicates that there was no activity at the highest concentration of peptide used (512μg/ml)) | / (/ indicates that there was no activity at the highest concentration of peptide used (512μg/ml)) | / (/ indicates that there was no activity at the highest concentration of peptide used (512μg/ml)) | / (/ indicates that there was no activity at the highest concentration of peptide used (512μg/ml)) | –

Reference: paper PMC10414684, “Novel integrated computational AMP discovery approaches highlight diversity in the helminth AMP repertoire” (PLOS Pathogens, 2023)
